# Read-outs that look alike come from different tables or passages of the source.
# Assays:
# [1] = system: Salmonella enterica subsp enterica serovar Typhimurium; test: microbe, parasite or virus in culture
# [2] = system: Salmonella enterica subsp enterica serovar Enteritidis; test: microbe, parasite or virus in culture
# [3] = system: commensal Escherichia coli; test: microbe, parasite or virus in culture
# Enterococcus faecalis = test: microbe, parasite or virus in culture
# Clostridium perfringens = test: microbe, parasite or virus in culture; type: cell-based
# [4] = 0.5% in diet, 29 days
# [5] = Growth performance of broiler chickens, floor pen trial over five weeks (Example 6); type: in vivo; conditions: for numerical improvement of weight gain compared to the control: day 1 to day 36
# Text: The objective of the present trial (Trial A) was to evaluate the effects of sucinic acid on the growth performance of broiler chickens in a floor pen trial over five weeks. Succinic acid was supplemented at four different dose levels. […] Each group was placed in one floor pen littered with wood shavings and allocated to one of the different treatments. Each treatment was replicated with 4 groups per sex. Birds had ad libitum access to feed and tap water. […] Chickens received diets based on soybean meal, and wheat as main ingredients (Table 6). […] The target quantities of succinic acid were added on top to the feed, mixed with appropriate amounts of maize starch as a carrier: […] For the statistical evaluation of the data, a one-factorial analysis of variance for each diet (factor: treatment) was carried out. Where significant treatment effects (p<0.05) were indicated, the differences among treatment means were subsequently analyzed with the Newman-Keuls test.
# [6] = for Daily feed intake / Live weight of piglets: dietary inclusion 1.0%
smiles,measurement,setting,value
"O=C(O)CC(O)(CC(=O)O)C(=O)O [citric acid, reference compound]",MIC90,[1],< 31.2 mM
same,MIC90,[2],< 31.2 mM
same,MIC90,[3],< 31.2 mM
same,MIC90,Enterococcus faecalis,< 31.2 mM
same,MIC90,Clostridium perfringens,< 31.2 mM
"O=C(O)CCC(=O)O [Succinic acid, succinic acid]",MIC90,[1],< 31.2 mM
same,MIC90,[2],< 31.2 mM
same,MIC90,[3],< 31.2 mM
same,MIC90,Enterococcus faecalis,< 31.2 mM
same,MIC90,Clostridium perfringens,< 31.2 mM
same,DWG numerically higher than control group,[4],5%
same,Weight gain,"[4]; group B, n = 24",6.57 ± 1.91 kg
same,Feed conversion,"[5]; Day 1-22, 2.5 g/kg feed",1.365^B g feed/g gain
same,Feed intake,"[5]; Day 1-22, 2.5 g/kg feed",1427^A g
same,Weight gain,"[5]; Day 1-22, 2.5 g/kg feed",1046^A g
same,Feed conversion,"[5]; Day 1-22, 5 g/kg feed",1.461^A g feed/g gain
same,Feed intake,"[5]; Day 1-22, 5 g/kg feed",1446^A g
same,Weight gain,"[5]; Day 1-22, 5 g/kg feed",991^BC g
same,Feed conversion,"[5]; Day 1-22, 7.5 g/kg feed",1.372^B g feed/g gain
same,Feed intake,"[5]; Day 1-22, 7.5 g/kg feed",1445^A g
same,Weight gain,"[5]; Day 1-22, 7.5 g/kg feed",1054^A g
same,Feed conversion,"[5]; Day 1-22, 10 g/kg feed",1.381^B g feed/g gain
same,Feed intake,"[5]; Day 1-22, 10 g/kg feed",1430^A g
same,Weight gain,"[5]; Day 1-22, 10 g/kg feed",1036^AB g
same,Feed conversion,"[5]; Day 1-36, 2.5 g/kg feed",1.602^A g feed/g gain
same,Feed intake,"[5]; Day 1-36, 2.5 g/kg feed",3817^A g
same,Weight gain,"[5]; Day 1-36, 2.5 g/kg feed",2383^A g
same,Feed conversion,"[5]; Day 1-36, 5 g/kg feed",1.642^A g feed/g gain
same,Feed intake,"[5]; Day 1-36, 5 g/kg feed",3793^A g
same,Weight gain,"[5]; Day 1-36, 5 g/kg feed",2311^A g
same,Feed conversion,"[5]; Day 1-36, 7.5 g/kg feed",1.612^A g feed/g gain
same,Feed intake,"[5]; Day 1-36, 7.5 g/kg feed",3870^A g
same,Weight gain,"[5]; Day 1-36, 7.5 g/kg feed",2404^A g
same,Feed conversion,"[5]; Day 1-36, 10 g/kg feed",1.651^A g feed/g gain
same,Feed intake,"[5]; Day 1-36, 10 g/kg feed",3868^A g
same,Weight gain,"[5]; Day 1-36, 10 g/kg feed",2347^A g
same,Feed conversion,"[5]; Day 22-36, 2.5 g/kg feed",1.790^A g feed/g gain
same,Feed intake,"[5]; Day 22-36, 2.5 g/kg feed",2392^A g
same,Weight gain,"[5]; Day 22-36, 2.5 g/kg feed",1337^A g
same,Feed conversion,"[5]; Day 22-36, 5 g/kg feed",1.786^A g feed/g gain
same,Feed intake,"[5]; Day 22-36, 5 g/kg feed",2347^A g
same,Weight gain,"[5]; Day 22-36, 5 g/kg feed",1320^A g
same,Feed conversion,"[5]; Day 22-36, 7.5 g/kg feed",1.806^A g feed/g gain
same,Feed intake,"[5]; Day 22-36, 7.5 g/kg feed",2431^A g
same,Weight gain,"[5]; Day 22-36, 7.5 g/kg feed",1350^A g
same,Feed conversion,"[5]; Day 22-36, 10 g/kg feed",1.870^A g feed/g gain
same,Feed intake,"[5]; Day 22-36, 10 g/kg feed",2442^A g
same,Weight gain,"[5]; Day 22-36, 10 g/kg feed",1311^A g
same,numerical improvement of weight gain compared to the control,[5]; 2.5 g per kg feed,3.6%
same,numerical improvement of weight gain compared to the control,[5]; 7.5 g per kg feed,4.5%
same,improvement of weight gain compared to the control,"[5]; starter period (day 1-22), across the different inclusion levels",3.9% to 10.5
same,Daily feed intake,[6]; Day 0-14,368 g
same,Daily feed intake,[6]; Day 14-24,649 g
same,Live weight of piglets,[6]; Day 14,12.01 kg
same,Daily feed intake,[6]; Day 24-36,869 g
same,Live weight of piglets,[6]; Day 24,16.90 kg
same,Live weight of piglets,"[6]; Final, day 36",24.32 kg
same,Live weight of piglets,"[6]; Initial, day 0",8.51 kg
same,Daily feed intake,"[6]; Overall, day 0-36",613 g
same,reduction of feed intake versus control,"[6]; day 0-14, dietary level of 1.0%",−25.4%
"COC[C@H]1O[C@@H](OC2OC[C@@H]3O[C@]4(O[C@H]3[C@H]2OC(=O)C(C)C)O[C@H](C)[C@@](O)(C(C)=O)[C@@H]2OCO[C@H]24)[C@@H](OC)[C@@H](O)[C@@H]1O[C@@H]1O[C@H](C)[C@H](OC)[C@H](O[C@H]2C[C@@]3(C)OC4(C[C@@H](O)[C@H](O[C@H]5C[C@@H](O)[C@H](OC(=O)c6c(C)c(Cl)c(O)c(Cl)c6OC)[C@@H](C)O5)[C@@H](C)O4)O[C@@H]3[C@@H](C)O2)[C@H]1O (stereo partly drawn) [Avilamycin, reference compound]",Feed conversion,"[5]; Day 1-22, 10 mg/kg feed",1.462^A g feed/g gain
same,"Feed conversion, relative to control (100)","[5]; Day 1-22, 10 mg/kg feed",101.0
same,Feed intake,"[5]; Day 1-22, 10 mg/kg feed",1450^A g
same,Weight gain,"[5]; Day 1-22, 10 mg/kg feed",992^BC g
same,"Weight gain, relative to control (100)","[5]; Day 1-22, 10 mg/kg feed",104.1
same,Feed conversion,"[5]; Day 1-36, 10 mg/kg feed",1.638^A g feed/g gain
same,"Feed conversion, relative to control (100)","[5]; Day 1-36, 10 mg/kg feed",100.9
same,Feed intake,"[5]; Day 1-36, 10 mg/kg feed",3860^A g
same,Weight gain,"[5]; Day 1-36, 10 mg/kg feed",2359^A g
same,"Weight gain, relative to control (100)","[5]; Day 1-36, 10 mg/kg feed",102.5
same,Feed conversion,"[5]; Day 22-36, 10 mg/kg feed",1.769^A g feed/g gain
same,"Feed conversion, relative to control (100)","[5]; Day 22-36, 10 mg/kg feed",101.1
same,Feed intake,"[5]; Day 22-36, 10 mg/kg feed",2412^A g
same,Weight gain,"[5]; Day 22-36, 10 mg/kg feed",1366^A g
same,"Weight gain, relative to control (100)","[5]; Day 22-36, 10 mg/kg feed",101.4

# Reference: patent publication US20110189347A1 (priority 2008, published 2011)
